Results: patent US20120035531A1, “ON-DEMAND AND REVERSIBLE DRUG RELEASE BY EXTERNAL CUE” (PRESIDENT AND FELLOWS OF HARVARD COLLEGE, priority 2009, published 2012)

How the values were obtained:
[1] = In vitro release of encapsulated Mitoxantrone from alginate hydrogel with ultrasound; format: physicochemical
Protocol: Alginate hydrogels containing 0.825 mg/mL of Mitoxantrone were prepared by mixing alginate aqueous solution with slurries of CaSO4, to a final concentration of 50 mM Ca^2+ and 2% alginate (w/w) polymer. The gel was cast between two glass slides and cut into discs of approximately 10 mm diameter and 2 mm thickness. Thereafter, hydrogels were swollen overnight in the commercially available Dulbecco's Modified Eagle's Medium (DMEM). Hydrogel disks so prepared were next placed in a 15 mL plastic tube with 5 ml of DMEM. One group of the sample hydrogels were subjected to low-frequency ultrasound with frequency of 20 KHz and intensity of 1 watt for 5 min per hour. A further group comprising control hydrogels, similarly prepared, were not subjected to any stimulation. FIGS. 1A and 1B show the power profiles of ultrasound on the two groups of hydrogels.

MCF7 breast cancer cells = assay: Bioactivity of ultrasound-released Mitoxantrone: MCF7 cell viability; format: cell-based; details: 24 hours, ultrasound-released vs fresh Mitoxantrone solution 0.1 to 20 μg/mL
Protocol: The bioactivity of the released Mitoxantrone in example 1 was studied by incubating MCF7 breast cancer cells in the Mitoxantrone solution, and measuring the cell viability after 24 hours. Fresh Mitoxantrone solutions (unmixed with polymer) with various concentrations ranging from 0.1 to 20 μg/mL were also used to incubate the same number of MCF7 breast cancer cells.

## O=C1c2c(O)ccc(O)c2C(=O)c2c(NCCNCCO)ccc(NCCNCCO)c21 [Mitoxantrone]
[1]; 20 KHz, 1 watt, 5 min per hour
  level of enhanced release rates across ultrasound pulses: all on the same level
[1]; 5 min of ultrasound per hour, 20 KHz, 1 watt, vs control hydrogels
  increase of cumulative release amount: ~70%
[1]; alginate hydrogel 0.825 mg/mL Mitoxantrone in DMEM, 20 KHz, 1 watt, 5 min per hour, vs no stimulation
  increase of release rates by ultrasound stimulation: approximately 10 times
[1]; alginate hydrogel in DMEM
  rate of release after removing the ultrasound: decayed to negligible levels
MCF7 breast cancer cells
  cell viability: reduces cell viability by the same amount as a fresh Mitoxantrone solution of equivalent concentration
